Values quoted from earlier work, collected in article PMC5358987 (Drug Design, Development and Therapy, 2017).

For `O=C(O)[C@@H]1CSC(c2ccc(O)cc2O)N1` (mixture of isomers) [MHY384, (2RS,4R)-2-(2,4-dihydroxyphenyl)thiazolidine-4-carboxylic acid], the “Tyrosinase inhibition” value (tyrosinase) is listed as “potent competitive tyrosinase inhibitors” and the “Reduction of melanogenesis” value (HRM2 hairless mice) is listed as “effectively reduce melanogenesis”.
